# Assay results as given in ChEMBL document CHEMBL1201862, “PubChem BioAssay data set” (2004).
# Active and inactive are the calls of the source.
# Assays:
# [1] = biological target: G-protein coupled receptor 55 (Homo sapiens, UniProt Q9Y2T6); assay: GPR55 agonists via beta-arrestin recruitment, primary screen, imaging, U2OS cells, beta-arrestin-GFP redistribution (AID 1961); type: functional
# [2] = biological target: T1, Replicative DNA helicase DnaB (Mycobacterium tuberculosis, UniProt P9WMR3); assay: DnaB intein splicing inhibitors, dose response, biochemical, cell-free fluorescence (AID 449749); type: functional
# T1 sequence (P9WMR3 whole entry): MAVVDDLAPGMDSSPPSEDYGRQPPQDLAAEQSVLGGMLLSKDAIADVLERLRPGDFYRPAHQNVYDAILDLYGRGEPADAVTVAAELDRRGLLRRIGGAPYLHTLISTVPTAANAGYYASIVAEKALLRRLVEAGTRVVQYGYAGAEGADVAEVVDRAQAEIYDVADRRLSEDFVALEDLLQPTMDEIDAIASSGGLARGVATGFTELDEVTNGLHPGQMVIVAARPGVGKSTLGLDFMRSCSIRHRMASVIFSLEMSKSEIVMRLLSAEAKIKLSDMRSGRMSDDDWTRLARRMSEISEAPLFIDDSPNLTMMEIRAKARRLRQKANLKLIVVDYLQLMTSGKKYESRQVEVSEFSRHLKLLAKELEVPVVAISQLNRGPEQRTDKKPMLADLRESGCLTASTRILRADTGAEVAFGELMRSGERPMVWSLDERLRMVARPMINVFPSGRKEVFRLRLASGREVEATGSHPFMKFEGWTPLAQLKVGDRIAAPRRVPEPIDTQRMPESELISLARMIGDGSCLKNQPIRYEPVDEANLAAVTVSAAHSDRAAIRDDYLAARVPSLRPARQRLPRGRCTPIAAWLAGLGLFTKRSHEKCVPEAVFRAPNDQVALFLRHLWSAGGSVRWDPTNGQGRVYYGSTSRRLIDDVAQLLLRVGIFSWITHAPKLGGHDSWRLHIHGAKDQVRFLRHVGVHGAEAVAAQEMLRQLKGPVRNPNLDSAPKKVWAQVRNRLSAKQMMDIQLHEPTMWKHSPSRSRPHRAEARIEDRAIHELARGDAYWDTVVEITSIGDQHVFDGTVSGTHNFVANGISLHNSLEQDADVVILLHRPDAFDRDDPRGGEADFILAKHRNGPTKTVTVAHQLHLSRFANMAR
# Protein RecA = biological target: T2, Protein RecA (Mycobacterium tuberculosis, UniProt P9WHJ3); assay: Fluorescence Cell-Free Homogeneous Dose Retest to Identify Inhibitors of RecA-Intein Splicing Activity. [Related pubchem assays (depositor defined):AID2097, AID2223, AID489010, AID492950]; type: functional
# T2 sequence (P9WHJ3 whole entry): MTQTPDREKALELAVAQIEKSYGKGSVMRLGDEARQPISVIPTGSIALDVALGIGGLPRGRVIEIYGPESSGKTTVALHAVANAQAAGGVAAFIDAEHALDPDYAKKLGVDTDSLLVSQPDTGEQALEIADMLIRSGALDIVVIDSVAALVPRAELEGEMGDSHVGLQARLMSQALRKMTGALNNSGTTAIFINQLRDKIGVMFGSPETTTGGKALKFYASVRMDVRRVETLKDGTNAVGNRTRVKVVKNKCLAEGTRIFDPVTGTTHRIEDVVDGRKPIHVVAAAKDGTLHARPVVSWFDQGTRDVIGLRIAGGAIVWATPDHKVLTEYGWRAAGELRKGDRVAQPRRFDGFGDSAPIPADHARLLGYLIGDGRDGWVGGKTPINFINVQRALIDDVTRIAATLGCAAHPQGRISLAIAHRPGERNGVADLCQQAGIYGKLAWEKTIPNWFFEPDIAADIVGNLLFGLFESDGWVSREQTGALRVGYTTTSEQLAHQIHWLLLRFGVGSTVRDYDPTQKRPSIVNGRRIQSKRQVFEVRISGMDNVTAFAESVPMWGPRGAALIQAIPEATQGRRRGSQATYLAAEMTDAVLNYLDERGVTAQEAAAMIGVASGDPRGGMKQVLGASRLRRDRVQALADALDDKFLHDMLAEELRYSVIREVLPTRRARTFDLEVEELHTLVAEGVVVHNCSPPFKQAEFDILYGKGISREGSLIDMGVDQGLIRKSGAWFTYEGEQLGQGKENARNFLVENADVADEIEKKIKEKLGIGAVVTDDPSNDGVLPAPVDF
# [3] = biological target: T3, Heat shock factor protein 1 (Mus musculus, UniProt P38532); assay: HSF1 potentiators in luciferase reporter cells, confirmation, cell-based, NIH3T3, luminescence, dose retest (AID 435004); type: functional;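 note: stress induced by proteasome inhibitor MG132 added 30 min after compound; luciferase reporter driven by HSF1 response element in NIH3T3 cells; actives raise luminescence as potentiators of the MG132 stress response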
# T3 sequence (P38532 whole entry): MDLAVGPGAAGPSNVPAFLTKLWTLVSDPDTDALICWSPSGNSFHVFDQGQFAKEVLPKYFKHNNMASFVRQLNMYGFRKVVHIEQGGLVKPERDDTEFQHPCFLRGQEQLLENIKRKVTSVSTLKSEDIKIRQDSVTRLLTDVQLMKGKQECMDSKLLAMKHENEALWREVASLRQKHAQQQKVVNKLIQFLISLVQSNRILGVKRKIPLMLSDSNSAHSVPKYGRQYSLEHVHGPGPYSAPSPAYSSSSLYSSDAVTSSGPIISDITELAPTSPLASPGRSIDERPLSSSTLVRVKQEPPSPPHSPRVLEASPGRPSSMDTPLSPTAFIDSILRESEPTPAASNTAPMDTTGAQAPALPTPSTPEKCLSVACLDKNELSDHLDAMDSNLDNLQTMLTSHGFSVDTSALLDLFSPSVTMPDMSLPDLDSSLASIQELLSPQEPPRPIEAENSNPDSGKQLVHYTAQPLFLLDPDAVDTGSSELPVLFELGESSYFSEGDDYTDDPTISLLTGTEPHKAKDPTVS
# [4] = HEp-2 cell cytotoxicity, dose response, cytotoxicity control for RSV inhibitor project, HTS (AID 2410); type: functional; details: human respiratory syncytial virus
# INS1 = assay: beta cell apoptosis inhibitors, cytokine rescue, dose response, luminescence, retest (AID 449756); type: functional, cell-based; details: Rattus norvegicus;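 note: cell death triggered by IL-1 beta plus TNF-alpha plus IFN-gamma mixture; protective hits raise ATP signal compared with cytokine alone wells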
# Large T antigen = Large T antigen (Simian virus 40, UniProt P03070); type: functional, Betapolyomavirus macacae;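 note: Confirmatory-stage PubChem screen for compounds that inhibit SV40 T antigen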
# NS3 = NS3 (Hepatitis C virus, UniProt A3EZJ3); assay: PubChem AID 2173; set-up: species or system Hepacivirus hominis
# [5] = biological target: DNA damage-inducible transcript 3 protein (Mus musculus, UniProt P35639); type: functional, Cricetulus griseus
# [6] = Luminescence Cell-Based Dose Retest to Confirm Inhibitors of Cancer Stem Cells. [Related pubchem assays (depositor defined):AID2717, AID2721]; type: functional; details: Homo sapiens
# [7] = HepG2 cell cytotoxicity, dose response, cytotoxicity control for non-replicating M. tuberculosis project (AID 489018); type: functional; details: Mycobacterium tuberculosis
# [8] = biological target: T4, Ubiquitin-conjugating enzyme E2 N (Homo sapiens, UniProt P61088); type: functional;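 note: Dose-response confirmation in a TR-FRET assay detecting UBC13-driven polyubiquitin chain formation, inhibition measured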
# T4 sequence (P61088 whole entry): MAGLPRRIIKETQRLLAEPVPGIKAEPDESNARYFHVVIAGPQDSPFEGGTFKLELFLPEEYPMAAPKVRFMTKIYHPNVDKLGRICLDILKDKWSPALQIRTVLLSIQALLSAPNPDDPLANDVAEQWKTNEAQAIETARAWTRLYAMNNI
# [9] = Vero E6 cell cytotoxicity, dose response, cytotoxicity control for non-replicating M. tuberculosis project, secondary assay (AID 492998); type: functional, VeroE6; details: Vero C1008
# cells = type: functional
# [10] = THP-1 cell cytotoxicity, dose response, cytotoxicity control for non-replicating M. tuberculosis project (AID 489025); type: functional
# [11] = biological target: T5, Runt-related transcription factor 1/Core-binding factor subunit beta (Homo sapiens, UniProt Q01196+Q13951); assay: inhibitors of RUNX1 Runt–CBFb-SMMHC binding, primary screen, biochemical, FRET, Cerulean-Runt, Venus-CBFb-SMMHC, uHTS (AID 1434); type: protein assay;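 note: partner is the CBFb-SMMHC leukemia fusion protein rather than wild-type CBFb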
# [12] = biological target: T5, Runt-related transcription factor 1/Core-binding factor subunit beta; assay: inhibitors of RUNX1 Runt–CBFb-SMMHC binding, biochemical, TR-FRET (AID 1438); type: protein assay
# X-box-binding protein 1 = X-box-binding protein 1 (Homo sapiens, UniProt P17861); type: functional, Cricetulus griseus;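 note: confirmatory dose-response counter-screen serving a CHOP assay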
# Vero [13] = assay: cells; type: functional, cell-based; details: Chlorocebus sabaeus
# Vero [14] = assay: cells; type: functional; details: Chlorocebus sabaeus
# [15] = cytotoxicity toward NIH3T3 fibroblasts, dose response, counter-screen, cell-based, ATP luminescence, mouse fibroblasts (AID 2010); type: functional;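 note: cells exposed to compound for about 90 hours before reading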
# [16] = biological target: Luciferin 4-monooxygenase (Photinus pyralis, UniProt P08659); assay: Counter Screen for Luciferase-based Assay Positives. [Related pubchem assays: 620, 618, 411 ]
# [17] = inhibitors of intracellular T. cruzi replication, confirmation, NIH3T3 host cells, beta-gal luminescence (AID 2044); type: functional, cell-based;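 note: intracellular parasites grown in NIH/3T3 mouse fibroblasts as host cells; luminescent beta-galactosidase reporter signal from transgenic T. cruzi replicating inside host cells; inhibitors lower the luminescence signal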
# HT-1080 = assay: cytotoxicity in HT1080 fibrosarcoma cells, cell-based, fluorescence readout (AID 620); type: functional; details: Homo sapiens
# [18] = biological target: T6, Type-1 angiotensin II receptor (Homo sapiens, UniProt P30556); assay: AT1 receptor agonists, dose response, selectivity assay for APJ receptor agonist project, cell-based, uHTS hits (AID 488865); type: functional;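 note: beta-arrestin recruitment to AT1 measured by enzyme fragment complementation luminescence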
# T6 sequence (P30556 whole entry): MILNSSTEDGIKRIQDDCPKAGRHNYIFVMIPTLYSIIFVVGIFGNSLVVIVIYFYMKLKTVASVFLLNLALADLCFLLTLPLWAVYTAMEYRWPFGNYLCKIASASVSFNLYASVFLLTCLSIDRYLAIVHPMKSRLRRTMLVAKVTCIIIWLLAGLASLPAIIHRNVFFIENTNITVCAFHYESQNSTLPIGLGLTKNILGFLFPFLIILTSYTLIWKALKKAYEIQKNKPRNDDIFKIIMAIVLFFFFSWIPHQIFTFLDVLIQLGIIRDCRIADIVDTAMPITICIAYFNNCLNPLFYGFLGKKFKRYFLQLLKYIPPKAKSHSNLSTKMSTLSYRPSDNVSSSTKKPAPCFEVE
# Cytochrome P450 2C9 = Cytochrome P450 2C9 (Homo sapiens, UniProt P11712)
# CAAX prenyl protease 2 = CAAX prenyl protease 2 (Saccharomyces cerevisiae S288c, UniProt Q03530); type: biochemical
# [19] = biological target: Glyceraldehyde-3-phosphate dehydrogenase (Homo sapiens, UniProt P04406)
# [20] = biological target: T7, Alkaline phosphatase, tissue-nonspecific isozyme (Homo sapiens, UniProt P05186); assay: human TNAP enzyme inhibitors, SAR follow-up, biochemical, luminescent, dose response (AID 1056)
# T7 sequence (P05186 whole entry): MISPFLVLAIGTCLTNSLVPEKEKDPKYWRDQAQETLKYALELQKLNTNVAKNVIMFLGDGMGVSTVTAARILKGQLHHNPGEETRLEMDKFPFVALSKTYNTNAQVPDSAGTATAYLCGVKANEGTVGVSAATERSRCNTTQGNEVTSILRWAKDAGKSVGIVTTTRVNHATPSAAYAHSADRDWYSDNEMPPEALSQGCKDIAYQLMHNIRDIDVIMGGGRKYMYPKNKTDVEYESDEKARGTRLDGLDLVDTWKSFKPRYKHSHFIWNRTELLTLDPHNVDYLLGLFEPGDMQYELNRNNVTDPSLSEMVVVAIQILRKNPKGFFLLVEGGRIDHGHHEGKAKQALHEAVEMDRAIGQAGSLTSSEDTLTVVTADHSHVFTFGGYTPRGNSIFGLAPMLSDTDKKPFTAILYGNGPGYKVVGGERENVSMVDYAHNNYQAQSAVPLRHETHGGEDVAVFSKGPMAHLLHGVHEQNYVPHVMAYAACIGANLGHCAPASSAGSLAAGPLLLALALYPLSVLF
# Hexokinase = Hexokinase (Trypanosoma brucei, UniProt Q38C41); assay: Confirmation assay for inhibitors of Trypanosoma brucei hexokinase 1-Analogue-first series. [Related pubchem assays (depositor defined):AID1430, AID1632, AID2516, AID2560, AID2579, AID2600, AID449725, AID492951]; type: functional
# Hexokinase, sequence (Q38C41 whole entry): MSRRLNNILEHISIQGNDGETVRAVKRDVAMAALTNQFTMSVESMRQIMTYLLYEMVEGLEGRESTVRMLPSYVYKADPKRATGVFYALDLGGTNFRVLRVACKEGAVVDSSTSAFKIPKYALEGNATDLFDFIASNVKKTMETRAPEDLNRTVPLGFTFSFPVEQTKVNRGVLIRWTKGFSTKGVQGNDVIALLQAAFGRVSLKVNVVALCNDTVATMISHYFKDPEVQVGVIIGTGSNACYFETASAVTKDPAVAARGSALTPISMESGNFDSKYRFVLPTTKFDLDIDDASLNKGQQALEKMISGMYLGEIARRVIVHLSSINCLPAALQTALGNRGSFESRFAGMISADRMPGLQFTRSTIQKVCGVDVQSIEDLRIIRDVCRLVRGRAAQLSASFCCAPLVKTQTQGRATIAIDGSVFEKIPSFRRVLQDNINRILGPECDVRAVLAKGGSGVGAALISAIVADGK
# T5 sequence (Q01196 whole entry, the tested form may be a part): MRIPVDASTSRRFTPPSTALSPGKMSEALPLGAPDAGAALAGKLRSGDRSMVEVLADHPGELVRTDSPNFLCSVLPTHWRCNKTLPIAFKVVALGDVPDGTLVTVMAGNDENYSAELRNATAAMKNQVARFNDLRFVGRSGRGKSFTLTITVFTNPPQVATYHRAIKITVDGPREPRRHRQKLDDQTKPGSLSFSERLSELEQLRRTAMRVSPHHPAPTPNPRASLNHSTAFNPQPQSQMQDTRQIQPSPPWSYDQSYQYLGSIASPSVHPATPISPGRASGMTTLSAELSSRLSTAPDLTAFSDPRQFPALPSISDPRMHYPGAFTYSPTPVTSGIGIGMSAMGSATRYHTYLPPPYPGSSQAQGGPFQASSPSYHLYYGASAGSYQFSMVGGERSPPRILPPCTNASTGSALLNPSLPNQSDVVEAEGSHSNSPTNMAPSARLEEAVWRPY
# T5 sequence (Q13951 whole entry, the tested form may be a part): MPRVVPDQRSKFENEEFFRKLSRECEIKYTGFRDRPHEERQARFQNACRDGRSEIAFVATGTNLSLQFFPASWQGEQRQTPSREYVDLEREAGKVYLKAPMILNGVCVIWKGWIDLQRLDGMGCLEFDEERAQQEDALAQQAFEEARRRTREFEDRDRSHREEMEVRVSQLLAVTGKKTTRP
# G-protein coupled receptor 55, sequence (Q9Y2T6 whole entry): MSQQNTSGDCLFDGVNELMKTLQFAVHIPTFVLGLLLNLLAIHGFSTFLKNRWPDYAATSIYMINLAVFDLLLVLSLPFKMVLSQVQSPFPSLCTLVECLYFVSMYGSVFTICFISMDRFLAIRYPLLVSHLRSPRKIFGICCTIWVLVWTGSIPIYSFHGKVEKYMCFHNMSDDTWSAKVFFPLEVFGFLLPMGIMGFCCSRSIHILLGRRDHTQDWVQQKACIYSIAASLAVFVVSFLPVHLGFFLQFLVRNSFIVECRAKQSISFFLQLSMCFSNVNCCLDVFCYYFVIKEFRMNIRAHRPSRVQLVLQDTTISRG
# DNA damage-inducible transcript 3 protein, sequence (P35639 whole entry): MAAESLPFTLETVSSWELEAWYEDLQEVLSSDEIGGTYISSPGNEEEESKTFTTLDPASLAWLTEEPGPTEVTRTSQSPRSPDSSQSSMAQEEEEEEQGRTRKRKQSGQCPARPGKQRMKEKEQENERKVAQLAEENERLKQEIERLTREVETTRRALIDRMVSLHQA
# Luciferin 4-monooxygenase, sequence (P08659 whole entry): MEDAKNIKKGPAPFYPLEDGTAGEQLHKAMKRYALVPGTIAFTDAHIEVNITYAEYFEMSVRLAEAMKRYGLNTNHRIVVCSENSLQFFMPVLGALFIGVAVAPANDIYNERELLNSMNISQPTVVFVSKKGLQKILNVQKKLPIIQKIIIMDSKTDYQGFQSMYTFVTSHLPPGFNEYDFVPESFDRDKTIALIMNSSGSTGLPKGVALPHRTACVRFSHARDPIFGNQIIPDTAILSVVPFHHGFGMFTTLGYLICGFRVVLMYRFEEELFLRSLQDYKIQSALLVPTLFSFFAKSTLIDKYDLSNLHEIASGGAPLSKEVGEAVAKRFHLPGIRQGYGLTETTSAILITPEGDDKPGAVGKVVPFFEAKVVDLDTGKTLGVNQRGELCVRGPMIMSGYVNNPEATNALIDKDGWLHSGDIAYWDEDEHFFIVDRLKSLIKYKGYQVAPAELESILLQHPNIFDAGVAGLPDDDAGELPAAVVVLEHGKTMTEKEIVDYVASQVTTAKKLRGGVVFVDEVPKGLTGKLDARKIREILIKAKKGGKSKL
# X-box-binding protein 1, sequence (P17861 whole entry): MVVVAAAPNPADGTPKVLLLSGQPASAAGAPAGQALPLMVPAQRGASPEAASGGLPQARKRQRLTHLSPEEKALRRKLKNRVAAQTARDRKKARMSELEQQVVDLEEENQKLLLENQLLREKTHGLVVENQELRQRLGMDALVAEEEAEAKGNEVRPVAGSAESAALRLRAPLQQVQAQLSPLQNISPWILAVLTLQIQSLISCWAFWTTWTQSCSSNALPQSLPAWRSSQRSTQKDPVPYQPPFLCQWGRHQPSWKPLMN
# NS3, sequence (A3EZJ3 whole entry): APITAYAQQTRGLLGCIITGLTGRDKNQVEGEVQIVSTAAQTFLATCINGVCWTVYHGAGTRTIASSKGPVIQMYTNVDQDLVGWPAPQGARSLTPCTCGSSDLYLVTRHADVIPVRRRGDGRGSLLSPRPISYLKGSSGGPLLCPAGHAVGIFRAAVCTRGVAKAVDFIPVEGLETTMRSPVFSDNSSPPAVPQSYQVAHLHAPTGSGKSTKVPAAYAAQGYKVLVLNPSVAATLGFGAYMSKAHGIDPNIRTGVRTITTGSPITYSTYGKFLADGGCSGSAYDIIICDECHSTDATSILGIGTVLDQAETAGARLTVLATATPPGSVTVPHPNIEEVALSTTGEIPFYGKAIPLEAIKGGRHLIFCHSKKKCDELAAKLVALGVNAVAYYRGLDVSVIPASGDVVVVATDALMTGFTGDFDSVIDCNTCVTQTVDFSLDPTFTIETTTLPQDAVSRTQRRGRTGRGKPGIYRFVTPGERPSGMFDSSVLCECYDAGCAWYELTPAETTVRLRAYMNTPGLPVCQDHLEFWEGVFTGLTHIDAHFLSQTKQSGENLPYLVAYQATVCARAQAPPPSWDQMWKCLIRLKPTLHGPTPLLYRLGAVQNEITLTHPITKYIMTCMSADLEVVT
# Cytochrome P450 2C9, sequence (P11712 whole entry): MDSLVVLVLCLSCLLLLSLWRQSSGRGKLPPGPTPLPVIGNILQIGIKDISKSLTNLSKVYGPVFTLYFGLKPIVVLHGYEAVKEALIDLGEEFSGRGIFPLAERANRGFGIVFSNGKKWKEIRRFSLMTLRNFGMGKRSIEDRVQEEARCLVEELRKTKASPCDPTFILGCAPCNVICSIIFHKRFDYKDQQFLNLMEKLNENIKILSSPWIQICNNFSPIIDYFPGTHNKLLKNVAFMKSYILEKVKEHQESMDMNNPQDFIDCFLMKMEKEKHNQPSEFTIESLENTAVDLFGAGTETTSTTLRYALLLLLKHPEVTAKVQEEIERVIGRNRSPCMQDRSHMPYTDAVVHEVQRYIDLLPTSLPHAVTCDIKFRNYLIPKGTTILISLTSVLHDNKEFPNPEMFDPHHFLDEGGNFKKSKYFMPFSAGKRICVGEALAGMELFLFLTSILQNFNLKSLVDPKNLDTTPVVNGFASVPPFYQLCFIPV
# CAAX prenyl protease 2, sequence (Q03530 whole entry): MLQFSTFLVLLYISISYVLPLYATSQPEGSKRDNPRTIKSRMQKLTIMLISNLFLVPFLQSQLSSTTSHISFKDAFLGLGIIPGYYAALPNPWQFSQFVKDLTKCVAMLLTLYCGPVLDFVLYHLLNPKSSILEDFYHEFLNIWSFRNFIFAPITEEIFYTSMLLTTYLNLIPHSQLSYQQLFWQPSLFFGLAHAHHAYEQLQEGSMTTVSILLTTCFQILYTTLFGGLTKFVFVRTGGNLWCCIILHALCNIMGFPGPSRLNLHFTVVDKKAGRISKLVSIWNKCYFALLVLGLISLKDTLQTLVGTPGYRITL
# Large T antigen, sequence (P03070 whole entry): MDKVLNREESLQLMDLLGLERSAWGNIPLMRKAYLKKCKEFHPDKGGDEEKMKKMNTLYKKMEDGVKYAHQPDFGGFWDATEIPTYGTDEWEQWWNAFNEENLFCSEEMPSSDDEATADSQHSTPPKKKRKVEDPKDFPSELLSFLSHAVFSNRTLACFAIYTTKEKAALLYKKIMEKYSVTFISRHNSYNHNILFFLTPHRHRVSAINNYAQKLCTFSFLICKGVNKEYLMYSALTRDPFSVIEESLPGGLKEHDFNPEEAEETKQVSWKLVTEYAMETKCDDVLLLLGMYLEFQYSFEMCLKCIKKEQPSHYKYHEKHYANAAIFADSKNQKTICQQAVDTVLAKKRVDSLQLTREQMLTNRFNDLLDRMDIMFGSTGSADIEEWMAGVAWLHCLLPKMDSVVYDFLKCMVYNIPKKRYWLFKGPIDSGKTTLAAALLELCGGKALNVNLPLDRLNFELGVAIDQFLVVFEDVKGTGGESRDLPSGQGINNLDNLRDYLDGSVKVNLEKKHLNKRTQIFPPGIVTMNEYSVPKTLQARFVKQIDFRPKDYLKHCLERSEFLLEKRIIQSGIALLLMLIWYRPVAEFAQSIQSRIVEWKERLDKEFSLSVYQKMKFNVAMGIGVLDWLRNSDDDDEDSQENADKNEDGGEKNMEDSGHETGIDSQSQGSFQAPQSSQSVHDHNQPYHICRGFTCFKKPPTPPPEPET
# Glyceraldehyde-3-phosphate dehydrogenase, sequence (P04406 whole entry): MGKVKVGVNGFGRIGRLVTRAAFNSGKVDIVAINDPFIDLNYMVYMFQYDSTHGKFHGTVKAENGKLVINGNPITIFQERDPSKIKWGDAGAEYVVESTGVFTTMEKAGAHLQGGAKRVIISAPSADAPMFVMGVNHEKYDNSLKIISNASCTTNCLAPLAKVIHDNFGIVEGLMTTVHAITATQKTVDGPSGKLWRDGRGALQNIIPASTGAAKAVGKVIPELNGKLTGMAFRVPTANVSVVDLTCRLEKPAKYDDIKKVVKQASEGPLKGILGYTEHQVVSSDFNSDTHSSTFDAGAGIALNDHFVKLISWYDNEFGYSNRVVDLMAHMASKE
smiles,measurement,setting,value
CCOC(=O)c1c(NC(=S)N2CCCCC2)sc2c1CCN(C(=O)OCC)C2,EC50,[1],5.41 µM (active)
same,AC50,[2],3.64 µM (active)
same,EC50,Protein RecA,12.7 µM (active)
same,EC50,[3],12.3 µM (active)
Cc1ccc(N2C(=O)NC(=O)/C(=C\C=C\c3ccco3)C2=O)cc1C,CC50,[4],> 50 µM (active)
same,AC50,INS1,4.83 µM (active)
same,IC50,Large T antigen,16.4 µM (active)
same,IC50,NS3,14.4 µM (not active)
same,Absolute IC50 (CHOP),[5],10 µM
same,EC50,[3],4.85 µM (active)
c1ccc(C[C@H]2CNCCN2CCCCC2CCCCC2)cc1,AC50,[6],7.01 µM (active)
same,CC50,[7],12.2 µM (active)
same,IC50,[8],> 20 µM (inactive)
same,CC50,[9],18.1 µM (active)
same,IC50,cells,27.4 µM (active)
same,CC50,[10],13.9 µM (active)
CCc1ccc(C2C3=C(O)CC(C)(C)CC3=Nc3c2c(O)nc2nc(C)nn32)cc1 (stereo unspecified),IC50,[11],3.68 µM (active)
same,IC50,[12],31.2 µM (active)
Oc1ccc(Cl)cc1C1=NNC(c2cccs2)C1 (stereo unspecified),CC50,[7],> 20 µM (active)
same,CC50,[9],> 20 µM (active)
same,IC50,cells,44.6 µM (active)
same,CC50,[10],22.6 µM (active)
CCc1nc(NCC(C)C)c(C#N)c2c1COC(C)(C)C2,Absolute IC50 (XBP1),X-box-binding protein 1,10 µM
same,Absolute IC50 (CHOP),[5],10 µM
CCOC(=O)/C(=C\c1ccccc1)C(=O)c1cc(C(C)=O)c(Nc2ccccc2)s1,EC50,[1],1.06 µM (active)
same,IC50,Vero [13],> 25 µM (active)
same,CC50,Vero [14],14.8 µM (active)
same,EC50,[15],6.8 µM (active)
same,AC50,INS1,5.42 µM (active)
same,EC50,[16],< 0.2 µM (active)
same,EC50,[17],2.35 µM (active)
same,EC50,HT-1080,20.3 µM (active)
COc1cc2c(cc1NC(=O)c1cc(-c3cccnc3)nc3ccc(C)cc13)oc1ccccc12,EC50,[18],> 100 µM (inactive)
same,AC50,Cytochrome P450 2C9,2.51 µM (inconclusive)
O=C(O)CCc1ccc(-c2cccs2)n1Cc1ccco1,AC50,CAAX prenyl protease 2,2.57 µM (active)
COC(=O)c1cc(-c2ccc(Cl)c(Cl)c2Cl)n[nH]1,IC50,[19],> 10 µM (inconclusive)
same,IC50,[20],0.24 µM (active)
COc1ccc(C(=O)O)c(NC(=O)c2ccc(Cl)cc2)c1,IC50,Hexokinase,> 25 µM (inactive)
O=c1s[nH]c2ccccc12,IC50,Hexokinase,> 25 µM (inactive)
CCOC(=O)c1cc2c(=O)n3cccc(C)c3nc2n(Cc2ccco2)/c1=N/C(=O)c1ccccc1,IC50,[11],13.1 µM (active)
same,IC50,[12],> 100 µM (inactive)
